Data taken from US20160194299A1 (priority 2013, published 2016).
In brackets after ≈: the same amount, converted by molar mass. Read-outs that look alike come from different tables or passages of the source.

Key:
[1] = tested on: Mtb; experiment: microbe, parasite or virus in culture; assay type: cell-based, Mycobacterium tuberculosis; settings: for MIC: Mycobacterium tuberculosis, read-out: MIC (I)
[2] = tested on: Vero cells
[3] = tested on: Mtb; experiment: microbe, parasite or virus in culture; assay type: cell-based, Mycobacterium tuberculosis; settings: for MIC: Mycobacterium tuberculosis, read-out: MIC (III)
[4] = tested on: Mtb; experiment: microbe, parasite or virus in culture; assay type: cell-based, Mycobacterium tuberculosis; settings: Mycobacterium tuberculosis, read-out: MIC (II)
[5] = in vitro; settings: African green monkey
[6] = in vitro; settings: human
[7] = tested on: Mtb in J744.1 murine macrophage cells; experiment: microbe, parasite or virus in culture; assay type: cell-based; settings: Mycobacterium tuberculosis, 120 h, read-out: MIC50, intracellular CFU assay
[8] = molecular target: M. smegmatis DprE1 (DprE1/DprE2 epimerase) (Mycolicibacterium smegmatis, UniProt A0R607); assay type: biochemical
M. smegmatis DprE1 (DprE1/DprE2 epimerase), sequence (A0R607 whole entry): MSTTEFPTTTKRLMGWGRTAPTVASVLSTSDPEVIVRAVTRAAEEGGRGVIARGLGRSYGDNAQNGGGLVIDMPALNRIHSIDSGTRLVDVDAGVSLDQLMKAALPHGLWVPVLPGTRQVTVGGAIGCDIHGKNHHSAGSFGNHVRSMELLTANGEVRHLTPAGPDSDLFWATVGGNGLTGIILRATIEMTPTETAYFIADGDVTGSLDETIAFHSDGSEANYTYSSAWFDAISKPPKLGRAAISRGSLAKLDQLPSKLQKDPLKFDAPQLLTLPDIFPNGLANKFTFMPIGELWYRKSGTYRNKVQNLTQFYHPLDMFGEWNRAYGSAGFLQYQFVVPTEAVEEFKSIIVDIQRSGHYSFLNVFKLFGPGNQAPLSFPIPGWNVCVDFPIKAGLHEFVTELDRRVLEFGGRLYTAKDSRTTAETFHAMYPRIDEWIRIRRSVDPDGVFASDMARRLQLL

[9] = tested on: exponentially growing virulent Mtb; assay type: cell-based, Mycobacterium tuberculosis

SMILES	MIC (I) [1]	LC50 (IV) [2]	MIC (III) [3]	MIC [4]	CC50 [6]	also measured
CCOC(=O)NC(=O)c1ccsc1NC(=O)c1n[nH]c2cc(C#N)ccc12 [Compound 128]	C (key: A: <1 μg/mL; B: 1-3 μg/mL; C: >3 μg/mL)	A (key: A: >50 μg/mL; B: 50-25 μg/mL; C: <25 μg/mL)	C (key: A: <5 μg/mL; B: 5-25 μg/mL; C: >25 μg/mL)	–	–	–
CCOC(=O)NC(=O)c1ccsc1NC(=O)c1ccnc(NC(=O)OC)c1 [Compound 61]	–	–	–	< 1 µg/mL	25 to 50 µg/mL (≈ 63.7 to 127 µM)	MIC [1]: 1 to 3 µg/mL (≈ 2.55 to 7.65 µM); MIC [3]: 5 to 25 µg/mL (≈ 12.7 to 63.7 µM); CC50 [5]: > 50 µg/mL
CO[C@H]1/C=C/O[C@@]2(C)Oc3c(C)c(O)c4c(O)c(c(/C=N/N5CCN(C)CC5)c(O)c4c3C2=O)NC(=O)/C(C)=C\C=C\[C@H](C)[C@H](O)[C@@H](C)[C@@H](O)[C@@H](C)[C@H](OC(C)=O)[C@@H]1C [RIF, rifampicin]	–	–	–	–	–	MIC50 [7]: 2.7 µg/mL (≈ 3.28 µM)
CC(C)OC(=O)NC(=O)c1ccsc1NC(=O)c1ccc2[nH]nnc2c1 [Compound 364]	B (key: A: <1 μg/mL; B: 1-3 μg/mL; C: >3 μg/mL)	B (key: A: >50 μg/mL; B: 50-25 μg/mL; C: <25 μg/mL)	C (key: A: <5 μg/mL; B: 5-25 μg/mL; C: >25 μg/mL)	–	–	–
CCOC(=O)NC(=O)c1ccsc1NC(=O)c1ccnc(NC(=O)OC(C)C)c1 [Compound 4]	–	–	–	1 to 3 µg/mL (≈ 2.38 to 7.14 µM)	> 50 µg/mL	–
CC(C)OC(=O)NC(=O)c1ccsc1NC(=O)c1ccc2[nH]ncc2c1 [Compound 351]	C (key: A: <1 μg/mL; B: 1-3 μg/mL; C: >3 μg/mL)	B (key: A: >50 μg/mL; B: 50-25 μg/mL; C: <25 μg/mL)	C (key: A: <5 μg/mL; B: 5-25 μg/mL; C: >25 μg/mL)	–	–	–
CS(=O)(=O)N1CCN(C(=O)c2ccsc2NC(=O)c2nc3ccccc3s2)CC1 [Compound 229]	–	A (key: A: >50 μg/mL; B: 50-25 μg/mL; C: <25 μg/mL)	–	–	–	–
CCOC(=O)NC(=O)c1ccsc1NC(=O)c1ccnc(NC(C)=O)c1 [Compound 13]	–	–	–	< 1 µg/mL	> 50 µg/mL	–
CCOc1n[nH]c(-c2ccsc2NC(=O)c2nc3ccccc3s2)n1 [Compound 211]	–	A (key: A: >50 μg/mL; B: 50-25 μg/mL; C: <25 μg/mL)	–	–	–	–
O=C(Nc1sccc1C(=O)N1CCN(C2CC2)CC1)c1nc2ccccc2s1 [Compound 256]	C (key: A: <1 μg/mL; B: 1-3 μg/mL; C: >3 μg/mL)	C (key: A: >50 μg/mL; B: 50-25 μg/mL; C: <25 μg/mL)	B (key: A: <5 μg/mL; B: 5-25 μg/mL; C: >25 μg/mL)	–	–	–
O=C(Nc1sccc1C(=O)NC(=O)N1CCOCC1)c1nc2ccccc2s1 [Compound 385]	C (key: A: <1 μg/mL; B: 1-3 μg/mL; C: >3 μg/mL)	C (key: A: >50 μg/mL; B: 50-25 μg/mL; C: <25 μg/mL)	C (key: A: <5 μg/mL; B: 5-25 μg/mL; C: >25 μg/mL)	–	–	–
CCOC(=O)NC(=O)c1ccsc1NC(=O)c1nc2ccc(Cl)cc2[nH]1 [Compound 72]	–	–	–	> 3 µg/mL	> 50 µg/mL	MIC [1]: 1 to 3 µg/mL (≈ 2.55 to 7.64 µM); MIC [3]: 5 to 25 µg/mL (≈ 12.7 to 63.6 µM); CC50 [5]: > 50 µg/mL
CCOC(=O)NC(=O)c1ccsc1NC(=O)c1ccc2[nH]ncc2c1 [Compound 350]	C (key: A: <1 μg/mL; B: 1-3 μg/mL; C: >3 μg/mL)	B (key: A: >50 μg/mL; B: 50-25 μg/mL; C: <25 μg/mL)	C (key: A: <5 μg/mL; B: 5-25 μg/mL; C: >25 μg/mL)	–	–	–
CCOC(=O)NC(=O)c1ccsc1NC(=O)c1nc2cc(Cl)ccc2s1 [Compound 52]	–	–	–	< 1 µg/mL	> 50 µg/mL	–
CCOC(=O)NC(=O)c1ccsc1NC(=O)c1cc2ccccn2n1 [Compound 11]	–	–	–	1 to 3 µg/mL (≈ 2.79 to 8.37 µM)	> 50 µg/mL	–
CCOC(=O)NC(=O)c1ccsc1NC(=O)c1n[nH]c2cc(Cl)ccc12 [Compound 134]	C (key: A: <1 μg/mL; B: 1-3 μg/mL; C: >3 μg/mL)	A (key: A: >50 μg/mL; B: 50-25 μg/mL; C: <25 μg/mL)	C (key: A: <5 μg/mL; B: 5-25 μg/mL; C: >25 μg/mL)	–	–	–
O=C(Nc1sccc1C(=O)N1CCSCC1)c1nc2ccccc2s1 [Compound 261]	C (key: A: <1 μg/mL; B: 1-3 μg/mL; C: >3 μg/mL)	A (key: A: >50 μg/mL; B: 50-25 μg/mL; C: <25 μg/mL)	C (key: A: <5 μg/mL; B: 5-25 μg/mL; C: >25 μg/mL)	–	–	–
CCOC(=O)NC(=O)c1ccsc1NC(=O)c1nc(=O)[nH]c2ccccc12 [Compound 141]	C (key: A: <1 μg/mL; B: 1-3 μg/mL; C: >3 μg/mL)	A (key: A: >50 μg/mL; B: 50-25 μg/mL; C: <25 μg/mL)	C (key: A: <5 μg/mL; B: 5-25 μg/mL; C: >25 μg/mL)	–	–	–
CCOC(=O)NC(=O)c1ccsc1NC(=O)c1n[nH]c2cc(C)ccc12 [Compound 120]	C (key: A: <1 μg/mL; B: 1-3 μg/mL; C: >3 μg/mL)	A (key: A: >50 μg/mL; B: 50-25 μg/mL; C: <25 μg/mL)	C (key: A: <5 μg/mL; B: 5-25 μg/mL; C: >25 μg/mL)	–	–	–
CCOC(=O)NC(=O)c1ccsc1NC(=O)c1cn2ccccc2n1 [Compound 76]	–	–	–	> 3 µg/mL	> 50 µg/mL	MIC [1]: 1 to 3 µg/mL (≈ 2.79 to 8.37 µM); MIC [3]: < 5 µg/mL; CC50 [5]: > 50 µg/mL

SMILES	MIC (I) [1]	LC50 (IV) [2]	MIC (III) [3]	MIC [4]	CC50 [6]	also measured
O=C(NC(=O)c1ccsc1NC(=O)c1nc2ccccc2s1)OCCF [Compound 20]	A (key: A: <1 μg/mL; B: 1-3 μg/mL; C: >3 μg/mL)	C (key: A: >50 μg/mL; B: 50-25 μg/mL; C: <25 μg/mL)	–	–	–	–
N#Cc1ccccc1NC(=O)c1nc2ccccc2s1 [Compound 215]	–	A (key: A: >50 μg/mL; B: 50-25 μg/mL; C: <25 μg/mL)	–	–	–	–
CCOC(=O)NC(=O)c1ccsc1NC(=O)c1ccc2sc(C)nc2c1 [Compound 10]	–	–	–	< 1 µg/mL	> 50 µg/mL	MIC [1]: < 1 µg/mL; CC50 [5]: 25 to 50 µg/mL (≈ 64.2 to 128 µM)
CCOC(=O)NC(=O)c1ccsc1NC(=O)c1nc2ccc(NC(=O)CNC(=O)OC(C)(C)C)cc2s1 [Compound 392]	B (key: A: <1 μg/mL; B: 1-3 μg/mL; C: >3 μg/mL)	B (key: A: >50 μg/mL; B: 50-25 μg/mL; C: <25 μg/mL)	C (key: A: <5 μg/mL; B: 5-25 μg/mL; C: >25 μg/mL)	–	–	–
CC(C)OC(=O)NC(=O)c1ccsc1NC(=O)c1n[nH]c2ncccc12 [Compound 359]	C (key: A: <1 μg/mL; B: 1-3 μg/mL; C: >3 μg/mL)	B (key: A: >50 μg/mL; B: 50-25 μg/mL; C: <25 μg/mL)	C (key: A: <5 μg/mL; B: 5-25 μg/mL; C: >25 μg/mL)	–	–	–
COC(=O)CCCNC(=O)c1ccsc1NC(=O)c1nc2ccccc2s1 [Compound 237]	–	B (key: A: >50 μg/mL; B: 50-25 μg/mL; C: <25 μg/mL)	–	–	–	–
C[C@H]1COC2(CCN(c3nc(=O)c4cc(C(F)(F)F)cc([N+](=O)[O-])c4s3)CC2)O1 [BTZ043]	–	–	–	–	–	inhibition of conversion of DPR to DPA by DprE1 [8]: potently inhibit
CCOC(=O)NC(=O)c1ccsc1NC(=O)c1ccnc(-n2cnnn2)c1 [Compound 12]	–	–	–	1 to 3 µg/mL (≈ 2.58 to 7.74 µM)	> 50 µg/mL	–
CCOC(=O)NC(=O)c1ccsc1NC(=O)c1n[nH]c2ncccc12 [Compound 358]	C (key: A: <1 μg/mL; B: 1-3 μg/mL; C: >3 μg/mL)	B (key: A: >50 μg/mL; B: 50-25 μg/mL; C: <25 μg/mL)	C (key: A: <5 μg/mL; B: 5-25 μg/mL; C: >25 μg/mL)	–	–	–
O=C(NC(=O)c1ccsc1NC(=O)c1cn2ccccc2n1)OC1CCCC1 [Compound 348]	C (key: A: <1 μg/mL; B: 1-3 μg/mL; C: >3 μg/mL)	B (key: A: >50 μg/mL; B: 50-25 μg/mL; C: <25 μg/mL)	C (key: A: <5 μg/mL; B: 5-25 μg/mL; C: >25 μg/mL)	–	–	–
CCOC(=O)NC(=O)c1ccsc1NC(=O)c1cccc(NC(C)=O)c1 [Compound 3]	–	–	–	1 to 3 µg/mL (≈ 2.66 to 7.99 µM)	> 50 µg/mL	–
CCOC(=O)NC(=O)c1ccsc1NC(=O)c1ccc2[nH]nnc2c1 [Compound 363]	C (key: A: <1 μg/mL; B: 1-3 μg/mL; C: >3 μg/mL)	B (key: A: >50 μg/mL; B: 50-25 μg/mL; C: <25 μg/mL)	C (key: A: <5 μg/mL; B: 5-25 μg/mL; C: >25 μg/mL)	–	–	–
CCOC(=O)NC(=O)c1ccsc1NC(=O)c1nc2cc(F)ccc2s1 [Compound 53]	–	–	–	< 1 µg/mL	25 to 50 µg/mL (≈ 63.5 to 127 µM)	MIC [1]: < 1 µg/mL; CC50 [5]: < 25 µg/mL
CCOC(=O)NC(=O)c1ccsc1NC(=O)c1cnc2cc[nH]c2c1 [Compound 355]	C (key: A: <1 μg/mL; B: 1-3 μg/mL; C: >3 μg/mL)	B (key: A: >50 μg/mL; B: 50-25 μg/mL; C: <25 μg/mL)	C (key: A: <5 μg/mL; B: 5-25 μg/mL; C: >25 μg/mL)	–	–	–
O=C(NC(=O)c1ccsc1NC(=O)c1nc2cnccc2s1)OC(c1ccccc1)C(F)(F)F (centres unmarked) [Compound 304]	B (key: A: <1 μg/mL; B: 1-3 μg/mL; C: >3 μg/mL)	B (key: A: >50 μg/mL; B: 50-25 μg/mL; C: <25 μg/mL)	C (key: A: <5 μg/mL; B: 5-25 μg/mL; C: >25 μg/mL)	–	–	–
CCOC(=O)NC(=O)c1ccsc1NC(=O)c1nc2ccccc2s1 [Compound 1]	–	–	–	1 to 3 µg/mL (≈ 2.66 to 7.99 µM)	> 50 µg/mL	MIC [1]: 1 to 3 µg/mL (≈ 2.66 to 7.99 µM); MIC [3]: > 25 µg/mL; CC50 [5]: > 50 µg/mL
NNC(=O)c1ccncc1 [INH, isoniazid]	–	–	–	–	–	MIC50 [7]: 0.2 µg/mL (≈ 1.46 µM); drop in CFU compared with TCA1 [9]: comparable drop in CFU over the first seven days
CCOC(=O)NC(=O)c1ccsc1NC(=O)c1ccnc(NC(=O)C(C)(C)C)c1 [Compound 60]	–	–	–	< 1 µg/mL	> 50 µg/mL	MIC [1]: < 1 µg/mL; MIC [3]: > 25 µg/mL; CC50 [5]: > 50 µg/mL
CN1CCC(NC(=O)c2ccsc2NC(=O)c2nc3ccccc3s2)CC1 [Compound 255]	C (key: A: <1 μg/mL; B: 1-3 μg/mL; C: >3 μg/mL)	A (key: A: >50 μg/mL; B: 50-25 μg/mL; C: <25 μg/mL)	C (key: A: <5 μg/mL; B: 5-25 μg/mL; C: >25 μg/mL)	–	–	–
CC(=O)Nc1cc(C(=O)Nc2sccc2C(=O)Nc2ccc(Cl)cc2)ccn1 [Compound 182]	–	–	–	> 3 µg/mL	–	–
